Values of other authors, collected in patent publication US6172066A, “Dihydropyrimidines and uses thereof” (Synaptic Pharmaceutical Corporation, priority 1997, dated 2001).
Read-outs that look alike come from different tables or passages of the source.

Experiments:
[1] = cited from earlier work
[2] = in addition to its antihypertensive effects; cited from earlier work

| Compound | side effects in BPH treatment ([1]; in vivo) | usefulness in treating BPH ([1]; patients with BPH) | side effects in BPH treatment ([1]; patients with BPH) | side effects of clonidine [2] |
| --- | --- | --- | --- | --- |
| COc1cc2nc(N3CCN(C(=O)c4ccco4)CC3)nc(N)c2cc1OC [prazosin] | untoward side effects | useful for treating BPH | – | – |
| CC(COc1ccccc1)N(CCCl)Cc1ccccc1 (stereo not shown) [phenoxybenzamine] | – | useful in relieving the symptoms of BPH | significant side effects such as dizziness and asthenia | – |
| COc1cc2nc(N3CCN(C(=O)C4CCCO4)CC3)nc(N)c2cc1OC (stereo not shown) [terazosin] | – | useful for treating BPH | untoward side effects | – |
| Clc1cccc(Cl)c1N=C1NCCN1 [clonidine] | – | – | – | dry mouth and sedation |
